Consider one compound from patent US20190298720A1, “USE OF SRC FAMILY KINASE INHIBITOR IN RIBOSOMAL DISORDER” (BIOXCEL CORPORATION, priority 2016, published 2019).

In test [1] the test system is Id1 expression in lung cancer cell lines. Conditions: cited from earlier work.
Test [2] relates to RPS19 knock-down zebrafish embryos. The test can be described thus: Erythropoiesis in a zebrafish model of DBA using RPS19 morpholino (o-dianisidine staining). In kind it is in vivo. Conditions: for % improvement of erythropoiesis / % intensity of staining: injected 1 cell stage & aqueous exposure, RPS19 Mo. The method, then: To evaluate the effect of Saracatinib, a Src kinase inhibitor (Lyn kinase) on improving erythropoiesis in a zebrafish model of DBA using RPS19 morpholino.
Materials: Zebrafish (One celled stage), RPS19 morpholino (1 ng) and standard control morpholino were dissolved in ultrapure water. Saracatinib (Selleckchem; Cat no. 51006) was dissolved in 1% DMSO to achieve […], 50 μM and 100 μM concentrations. 0-dianisidine staining solution was made by dissolving 100 mg of 0-dianisidine in 70 mL ethanol, Acetate buffer (49 mL, 0.1 M Sodium acetate and 51 mL, 0.1 M acetic acid), 3% Hydrogen peroxide and ultrapure water; Phosphate buffer saline (PBS), Para formaldehyde (PFA), Tricaine methane sulfonate (ms-222) and Bleach solution (equal parts of 1% Potassium hydroxide and 3% Hydrogen peroxide) were used in the experimental procedures.
(i) Control Mo, Egg water represents the zebrafish embryos which were injected with standard control morpholino, and 1% DMSO thriving in egg water, (ii) RPS19 Mo, Egg water represents wild type zebrafish embryos microinjected with 1 ng of RPS19 morpholino, and 1% DMSO; thriving in egg water, and (iii) RPS19 Mo+Saracatinib injected 1 cell stage and aqueous exposure represents zebrafish embryos which were microinjected with RPS19 morpholino and where Saracatinib was also microinjected at 1-cell stage along with adding Saracatinib in the aqueous phase or egg water.
The wild type zebrafish with egg water were placed in separate wells and were microinjected with standard control morpholino and 1% DMSO, which acted as normal control (Control Mo, Egg water). The wild type zebrafish eggs were injected with 1 ng of RPS19 morpholino and 1% DMSO at 1-cell stage (RPS19 Mo, Egg water), and were incubated at 28.5° C. for 96 hours. Saracatinib was microinjected in the zebra fish at one cell stage and also exposed in the media (aqueous exposure) to achieve optimal concentrations of 25 μM, 50 μM and 100 μM (RPS19 Mo+Saracatinib injected 1 cell stage and aqueous exposure). The experiment was carried out in the 6-well plates for control (Control Mo, Egg water); morpholinos group (RPS19 Mo, Egg water) and Saracatinib treatment group (RPS19 Mo+Saracatinib injected 1 cell stage and aqueous exposure) respectively. The incubation of the zebrafish in various groups was carried out up to 96 hours at 28.5° C. and the embryos were visually observed for any phenotypic changes or mortality. The embryos were euthanized at the end of the study by using tricaine methane sulfonate (ms-222), and fixed in 4% PFA for 2 hours at room temperature. After fixing and washing the embryos thoroughly (3 times) in 1×PBS, o-dianisidine staining was carried out for 30 minutes at room temperature in the dark to assess haemoglobin concentration. Embryos were then washed 3 times in 1×PBS and incubated in bleach solution for 20 minutes at room temperature. Further washing of the embryos were also carried out in 1×PBS to avoid any unnecessary staining. Quantitation of o-dianisidine staining in zebrafish embryos.
Haemoglobin quantification/total amount of the o-dianisidine staining on total embryo was calculated by using Image J software. The total embryo area and the intensity was noted by the software, by manually tracing the exact area of the embryo. The ratios of the intensity and the total embryo area was thus used to calculate the intensity per unit area which is then compared across groups (Control Mo, Egg water; RPS19 Mo, Egg water and RPS19 Mo+Saracatinib injected 1 cell stage and aqueous exposure). Percent intensity of staining of embryos was considered to be proportional to the haemoglobin concentration in each embryo and thus % improvement or recovery of erythropoiesis by administration of Saracatinib was further calculated.

In test [3] the test system is Lyn kinase. Description: Lyn kinase activity in RPS19 knock-down zebrafish embryos. In kind it is in vivo. The conditions noted are these: 25 μM, 50 μM and 100 μM.

“Also recorded” adds a separate entry of the source.

For the compound `CN1CCN(CCOc2cc(OC3CCOCC3)c3c(Nc4c(Cl)ccc5c4OCO5)ncnc3c2)CC1` [Saracatinib, N-(5-chloro-1,3-benzodioxol-4-yl)-7-[2-(4-methyl-1-piperazinyl)ethoxy]-5-[(tetrahydro-2H-pyran-4-yl)oxy]-4-quinazolinamine], the Id1 expression entry in test [1] is on record as “downregulates the Id1 expression”. Also, in test [2] (25 μM, 50 μM and 100 μM, compared to RPS19 injected morpholinos, 96 hpf, o-dianisidine staining), the “Erythropoiesis / erythropoietic defect (in words)” value is recorded as “rescue in haemopoietic defect; also recorded: dose related improvement in erythropoiesis; also recorded: improvement in the erythropoietic defect”. The “% improvement of erythropoiesis” value amounted to 10.49% in test [2] (Saracatinib 25 μM, 96 hpf); 36.75% in test [2] (Saracatinib 50 μM, 96 hpf); 19.82% in test [2] (Saracatinib 100 μM, 96 hpf). Besides, the “% intensity of staining” value in test [2] (Saracatinib 25 μM, 96 hpf) was determined as 2.646%; in test [2] (Saracatinib 50 μM, 96 hpf) it was 3.557%; in test [2] (Saracatinib 100 μM, 96 hpf), 3.18%. The “Haemoglobin concentration (in words)” value in test [2] (compared to zebrafish treated with RPS19 morpholino) is on record as “increased haemoglobin concentration”. Besides, the Lyn kinase activity result in test [3] is “decrease in the Lyn kinase activity”.
